Among the data in BindingDB's records for doi:10.1021/np970376z (Aoyama Gakuin University, 1998) are IC50 values, retold here.

Structures are written as SMILES.

This assay concerns the target Prothrombin (Homo sapiens, UniProt P00734). The assay can be described thus: Inhibition of thrombin.
In general, IC50 refers to the concentration that inhibits the measured activity by half. Turning to `CC1(C)CCC[C@H]2[C@H]1CC[C@@]1(C)[C@@H]2CC/C(=C\OS(=O)(=O)O)[C@@H]1CCc1ccoc1` [listing 1 of 2 here], the half-inhibitory concentration (IC50) amounted to 47.7 µM.
`C/C(=C\Cc1cc(O)ccc1O)CCC[C@@H](C)[C@@H](C[C@@H]1CCC[C@H]2C(C)(C)CCC[C@@]12C)OS(=O)(=O)O` had a concentration for half-maximal inhibition (IC50) above 136 µM.
Take `CC1(C)CCC[C@H]2[C@H]1CC[C@@]1(C)[C@@H]2CC/C(=C\OS(=O)(=O)O)[C@@H]1CCc1ccoc1` [listing 2 of 2 here]: the half-maximal inhibitory concentration (IC50) was 42.7 µM.
